Reference: patent US20210380548A1, “Fused [1,2,4]Thiadiazine Derivatives Which Act as KAT Inhibitors of the MYST Family” (CTxT Pty Limited, priority 2017, published 2021)

Assays:
[1] = system: histone H3 Lysine 14 acetylation (HBO1 mediated) in U2OS cells; test: Histone H3 Lysine 14 Acetylation Biomarker Assay (384-well, U2OS); format: cell-based; settings: Homo sapiens, serum free medium, 24 hours incubation
Experimental: Compounds may be tested for their ability to inhibit acetylation of the histone H3 Lysine 14 (which is HBO1 mediated) marker in the following assay:
The cell line U2OS was seeded at a density of 3,000 cells per well in 384-well optical quality tissue culture plates in RPMI medium supplemented with 10% foetal bovine serum and 10 mM Hepes. The cells were allowed to adhere for 24 hours under standard culture conditions (37 degree Celsius, 5% CO2). At the end of this period the cells were washed with serum free medium. Compound dilutions prepared in DMSO were added to the serum free medium, with negative control wells reserved for treatment with DMSO only and 100% inhibition positive controls receiving a potent inhibitor compound (e.g. (Z)-4-fluoro-N-((3-hydroxyphenyl)sulfonyl)-5-methyl-[1,1′-biphenyl]-3-carbohydrazonic acid) at 10 μM concentration. After incubation for 24 hours, the cells were fixed with 4% formaldehyde in PBS for 15 minutes at room temperature, washed with phosphate buffer saline and blocked with blocking buffer containing 0.2% TritonX100 and 2% BSA. Anti-H3K14ac specific antibody (Cell Signalling Technologies) in blocking buffer was added and incubated overnight at 4 degree Celsius. After washing, a secondary antibody labelled with AlexaFluor 488 dye (ThermoFisher) and Hoechst 33342 (1 μg/mL, Life Technologies) were added for 2 hours incubation at room temperature. Plates were washed and read on a
PerkinElmer Opera HCS high content imaging platform. Using a Columbus image analysis pipeline, individual nuclei were located by Hoechst 33342 stain and the acetylation level was calculated from the AlexaFluor 488-related intensity in the same area. The resulting mean intensity per cell was converted to percent inhibition relative to controls on the same plate and the data fitted against a four-parameter logistic model to determine the 50% inhibitory concentration (IC50).

MOF-KAT8 [2] = biological target: T1, MOF-KAT8 (Homo sapiens, UniProt Q9H7Z6); test: Acetyltransferase biochemical assay (AlphaScreen), KAT8; settings: Table 4 (MOF-KAT8); 0.4 μM Acetyl coenzyme A, histone H4, 20 nM enzyme
T1 sequence (Q9H7Z6 177-447): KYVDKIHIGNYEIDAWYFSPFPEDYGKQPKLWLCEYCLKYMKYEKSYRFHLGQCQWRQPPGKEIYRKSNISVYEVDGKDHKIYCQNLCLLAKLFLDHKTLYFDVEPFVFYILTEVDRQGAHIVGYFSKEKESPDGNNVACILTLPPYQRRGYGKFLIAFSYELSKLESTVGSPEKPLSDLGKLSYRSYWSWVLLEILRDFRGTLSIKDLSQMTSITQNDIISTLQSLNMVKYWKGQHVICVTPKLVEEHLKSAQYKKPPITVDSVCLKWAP

MOZ-KAT6A = biological target: T2, MOZ-KAT6A (Homo sapiens, UniProt Q92794, A567V); test: Revised Acetyltransferase Biochemical Assay, KAT6A; settings: Table 8 (MOZ-KAT6A), 1 μM Acetyl coenzyme A
T2 construct: encoding amino acid residues 507 to 778 (Uniprot Q92794-1) of human KAT6A; made in house; host or cells: E. coli BL21 DE3

MOF-KAT8 [3] = biological target: T1, MOF-KAT8; test: Revised Acetyltransferase Biochemical Assay, KAT8
[4] = system: histone H2A.Z Lysine 7 acetylation (TIP60 mediated) in U2OS cells; test: H2A.Z Lysine 7 Acetylation Biomarker Assay (384-well, U2OS); format: cell-based; settings: Homo sapiens, serum free medium, 24 hours incubation
Method in brief: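 U2OS cells (3,000/well) were treated with compound for 24 h after a serum-free wash, then fixed. They were stained with anti-H2A.ZK7ac, an AlexaFluor 488 secondary and Hoechst. High-content imaging gave mean nuclear intensity per cell, converted to percent inhibition against on-plate controls, and IC50 came from a four-parameter logistic fit.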

HBO-KAT7 [5] = biological target: T3, HBO-KAT7 (Homo sapiens, UniProt O95251); test: Revised Acetyltransferase Biochemical Assay, KAT7; settings: Table 9 (HBO-KAT7), 1 μM Acetyl coenzyme A
T3 construct: encoding amino acid residues 325 to 611 (Uniprot 095251-1) of human KAT7; made in house; host or cells: E. coli BL21 DE3 RIL

TIP60-KAT5 = biological target: T4, TIP60-KAT5 (Homo sapiens, UniProt Q92993); test: Revised Acetyltransferase Biochemical Assay, KAT5; settings: 10 nM KAT5, 1 μM AcCoA, 100 nM histone H4, 90 min
T4 construct: encoding amino acid residues 2 to 461 (Uniprot Q92993-2) of human KAT5 isoform; made in house; host or cells: E. coli BL21 DE3

HBO-KAT7 [6] = biological target: T3, HBO-KAT7; test: Acetyltransferase biochemical assay (AlphaScreen), KAT7; settings: Table 3 (HBO-KAT7); 0.4 μM Acetyl coenzyme A, histone H3.1, 40 nM enzyme
[7] = system: histone H3K23 acetylation (KATE mediated) in U2OS cells; test: Histone H3 Lysine 23 Acetylation Biomarker Assay (U2OS); format: cell-based; settings: Homo sapiens, 96 well, 24 hours incubation
Experimental: Compounds may be tested for their ability to inhibit acetylation of the histone H3K23 marker, which is KATE mediated, in the following assay:
The cell line U2OS was seeded at a density of 9,000 cells per well in 96 well optical quality tissue culture plates in RPMI medium and 10% foetal bovine serum, and allowed to adhere for 24 hours under standard culture conditions (37 degree Celsius, 5% CO2). At the end of this period the medium was aspirated. Compound dilutions prepared in DMSO were added to medium, with negative control wells reserved for treatment with DMSO only and 100% inhibition positive controls receiving a potent inhibitor compound (e.g. cas 2055397-28-7, benzoic acid, 3-fluoro-5-(2-pyridinyl)-, 2-[(2-fluorophenyl)sulfonyl]hydrazide) (Baell, J., Nguyen, H. N., Leaver, D. J., Cleary, B. L., Lagiakos, H. R., Sheikh, B. N., Thomas. T. J., Aryl sulfonohydrazides, WO2016198507A1, 2016) at 10 μM concentration and 200 μL transferred to the cells. After incubation for 24 hours, the cells were fixed with 3.7% formaldehyde in PBS for 20 minutes at room temperature, washed (5×5 minutes) with phosphate buffer saline containing 0.1% Tween 20 and blocked with Odyssey blocking buffer (LI-COR, Lincoln, Nebr.) containing 0.1% TritonX100. Anti-H3K23ac specific antibody (Abcam ab177275) in Odyssey blocking buffer containing 0.1% Tween 20 was added and incubated for 16 hours at 4 degree Celsius. After washing (as above), a secondary antibody labelled with Alexa647 dye (LifeTechnologies) and Hoechst 33342 (1 μg/mL, SigmaAldrich) were added for 1 hour incubation. Plates were washed as previously and read on a PerkinElmer Phenix high content imaging platform. Using a Columbus image analysis pipeline, individual nuclei were located by Hoechst 33342 stain and the acetylation level was calculated from the Alexa647-related intensity in the same area. The resulting mean intensity per cell was directly converted to percent inhibition relative to controls on the same plate and the data fitted against a four-parameter logistic model to determine the 50% inhibitory concentration (IC50).

T2 sequence (Q92794 507-778 A567V limits assumed): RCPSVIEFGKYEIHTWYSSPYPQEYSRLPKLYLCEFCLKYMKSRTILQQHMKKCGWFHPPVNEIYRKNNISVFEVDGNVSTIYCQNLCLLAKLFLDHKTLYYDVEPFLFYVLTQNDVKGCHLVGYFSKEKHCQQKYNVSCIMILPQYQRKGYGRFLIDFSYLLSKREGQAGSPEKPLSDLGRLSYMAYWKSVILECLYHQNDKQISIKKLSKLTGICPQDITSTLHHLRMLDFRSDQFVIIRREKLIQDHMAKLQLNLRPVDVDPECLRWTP
T4 sequence (Q92993 2-461 isoform Q92993-2): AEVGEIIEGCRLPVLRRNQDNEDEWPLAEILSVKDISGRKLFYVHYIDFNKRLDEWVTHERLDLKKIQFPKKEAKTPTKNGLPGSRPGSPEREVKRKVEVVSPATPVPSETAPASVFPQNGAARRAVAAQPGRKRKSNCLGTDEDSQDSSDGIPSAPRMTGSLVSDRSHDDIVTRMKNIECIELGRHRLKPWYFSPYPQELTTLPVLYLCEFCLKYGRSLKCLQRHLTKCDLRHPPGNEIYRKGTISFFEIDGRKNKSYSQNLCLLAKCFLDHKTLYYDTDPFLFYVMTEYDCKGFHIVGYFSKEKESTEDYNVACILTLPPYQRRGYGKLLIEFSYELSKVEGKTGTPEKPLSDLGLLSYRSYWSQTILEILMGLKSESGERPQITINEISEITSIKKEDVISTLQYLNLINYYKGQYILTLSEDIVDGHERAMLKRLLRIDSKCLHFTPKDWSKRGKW
T3 sequence (O95251 with tags, fused parts or gaps): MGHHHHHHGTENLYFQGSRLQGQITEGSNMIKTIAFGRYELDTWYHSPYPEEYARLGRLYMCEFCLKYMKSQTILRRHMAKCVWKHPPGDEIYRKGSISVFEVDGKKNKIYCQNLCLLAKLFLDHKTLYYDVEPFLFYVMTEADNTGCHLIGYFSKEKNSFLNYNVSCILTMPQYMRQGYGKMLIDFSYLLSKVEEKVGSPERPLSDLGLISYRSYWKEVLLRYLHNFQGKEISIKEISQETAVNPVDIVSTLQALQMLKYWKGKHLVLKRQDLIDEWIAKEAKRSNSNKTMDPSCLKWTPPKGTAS

| Structure (SMILES) | IC50 [1] [µM] | IC50 (MOF-KAT8 [2]) [µM] | IC50 (MOZ-KAT6A) [µM] | IC50 (MOF-KAT8 [3]) [µM] | IC50 [4] [µM] | IC50 (HBO-KAT7 [5]) [µM] | IC50 (TIP60-KAT5) [µM] | IC50 (HBO-KAT7 [6]) [µM] | IC50 [7] [µM] |
| --- | --- | --- | --- | --- | --- | --- | --- | --- | --- |
| O=C(NCC(F)(c1ccccc1)c1ncco1)C1=Nc2ccc(Cl)cc2S(=O)(=O)N1 (stereo not shown) [Example 175] | 1.84 | 29.3 | 0.013 | 30.2 | 11.9 | 0.478 | 0.311 | 0.162 | 0.154 |
| COc1cccc(C(CNC(=O)C2=Nc3ccc(Cl)cc3S(=O)(=O)N2)c2ncco2)c1 (stereo not shown) [Example 176, 7-chloro-N-(2-(3-methoxyphenyl)-2-(oxazol-2-yl)ethyl)-2H-benzo[e][1,2,4]thiadiazine-3-carboxamide 1,1-dioxide] | 4.43 | 92.9 | 0.076 | 30.2 | 15.4 | 0.869 | 5.11 | 0.207 |  |
| O=C(NCC(F)(c1ccccc1)c1ncco1)C1=Nc2ccc(I)cc2S(=O)(=O)N1 (stereo not shown) [Example 177] | 1.03 | 6.25 | 0.004 | 8.21 | 1.18 | 0.124 | 0.023 | 0.064 | 0.195 |
| O=C(NCC(c1ccccc1)c1n[nH]c(=O)o1)C1=Nc2ccc(I)cc2S(=O)(=O)N1 (stereo not shown) [Example 186] | > 40 | 71.5 | 0.024 |  | > 40 | 1.96 | 0.734 |  | > 10 |
| COc1cccc(C(CNC(=O)C2=Nc3ccc(I)cc3S(=O)(=O)N2)c2ncco2)c1 (stereo not shown) [Example 187, 7-iodo-N-(2-(3-methoxyphenyl)-2-(oxazol-2-yl)ethyl)-2H-benzo[e][1,2,4]thiadiazine-3-carboxamide 1,1-dioxide] | 0.491 | 22.8 | 0.015 | 14.1 | 5.46 | 0.115 | 0.242 |  |  |
| Cn1nc(-c2ccccc2CCNC(=O)C2=Nc3ccc(Cl)cc3S(=O)(=O)N2)oc1=O [Example 193] | 31.2 |  | 0.493 |  | > 40 | 1.94 | 4.17 |  | 9.08 |
| O=C(NCC(c1cccc(O)c1)c1ncco1)C1=Nc2ccc(Br)cc2S(=O)(=O)N1 (stereo not shown) [Example 214, 7-Bromo-N-(2-(3-hydroxyphenyl)-2-(oxazol-2-yl)ethyl)-2H-benzo[e][1,2,4]thiadiazine-3-carboxamide 1,1-dioxide] | 3.6 | 7.06 | 0.009 | 20.1 | 8.78 | 0.05 | 0.07 |  |  |
| O=C(NCC(c1cccc(O)c1)c1ncco1)C1=Nc2ccc(Cl)cc2S(=O)(=O)N1 (stereo not shown) [Example 216, 7-Chloro-N-(2-(3-hydroxyphenyl)-2-(oxazol-2-yl)ethyl)-2H-benzo[e][1,2,4]thiadiazine-3-carboxamide 1,1-dioxide] | 14.1 | 64.3 | 0.028 | 58.6 | 15.9 | 0.152 | 0.506 | 0.063 |  |
| Cc1ccccc1C(CNC(=O)C1=Nc2ccc(I)cc2S(=O)(=O)N1)c1ncco1 (stereo not shown) [Example 237, 7-iodo-N-(2-(oxazol-2-yl)-2-(o-tolyl)ethyl)-2H-benzo[e][1,2,4]thiadiazine-3-carboxamide 1,1-dioxide] | 0.498 | 6.35 | 0.01 | 15.3 | 3.41 | 0.121 | 0.163 |  |  |

Further lines, results first:

| IC50 [1] [µM] | IC50 (MOF-KAT8 [2]) [µM] | IC50 (MOZ-KAT6A) [µM] | IC50 (MOF-KAT8 [3]) [µM] | IC50 [4] [µM] | IC50 (HBO-KAT7 [5]) [µM] | IC50 (TIP60-KAT5) [µM] | IC50 (HBO-KAT7 [6]) [µM] | IC50 [7] [µM] | Structure (SMILES) |
| --- | --- | --- | --- | --- | --- | --- | --- | --- | --- |
| 1.3 | 5.14 | 0.023 | 43.7 | 9.88 | 0.386 | 0.412 |  |  | Cc1ccc(C(CNC(=O)C2=Nc3ccc(I)cc3S(=O)(=O)N2)c2ncco2)cc1 (stereo not shown) [Example 169] |
| 10.4 | 41.7 | 0.024 | > 125 | > 40 | 0.785 | 1.16 |  |  | COCc1nnc(C(CNC(=O)C2=Nc3ccc(I)cc3S(=O)(=O)N2)c2ccccc2)o1 (stereo not shown) [Example 171] |
| > 20 | 7.96 | 0.075 | 28.7 | > 40 | 0.214 | 2.85 |  |  | Nc1nnc(C(CNC(=O)C2=Nc3ccc(I)cc3S(=O)(=O)N2)c2ccccc2)o1 (stereo not shown) [Example 189] |
| 4.95 | 48.9 | 0.008 | 68.4 | 31.1 | 0.414 | 0.303 |  |  | O=C(NCCc1ccccc1-n1ncc(CO)n1)C1=Nc2ccc(I)cc2S(=O)(=O)N1 [Example 190, N-(2-(4-(hydroxymethyl)-2H-1,2,3-triazol-2-yl)phenethyl)-7-iodo-2H-benzo[e][1,2,4]thiadiazine-3-carboxamide 1,1-dioxide] |
| 0.437 |  | 0.131 |  | 1.28 | 0.023 | 0.149 |  | 7.15 | Cc1cc(O)cc(C(CNC(=O)C2=Nc3ccc(I)cc3S(=O)(=O)N2)c2ncco2)c1 (stereo not shown) [Example 222, N-(2-(3-Hydroxy-5-methylphenyl)-2-(oxazol-2-yl)ethyl)-7-iodo-2H-benzo[e][1,2,4]thiadiazine-3-carboxamide 1,1-dioxide] |
| 3.25 | 6.52 | 0.007 | 9.66 | 5.71 | 0.092 | 0.111 |  |  | O=C(NCC(c1ncco1)c1ccccc1O)C1=Nc2ccc(I)cc2S(=O)(=O)N1 (stereo not shown) [Example 228, N-(2-(2-Hydroxyphenyl)-2-(oxazol-2-yl)ethyl)-7-iodo-2H-benzo[e][1,2,4]thiadiazine-3-carboxamide 1,1-dioxide] |
